Among the data in patent US20150291598A1 (NOVARTIS AG, priority 2012, published 2015) are EC50 values, retold here.

The test system of this experiment is P. falciparum (NF54 or 3D7 strain). Kind of experiment: Assay for P. falciparum proliferation in infected human blood cells (SYBR Green). It counts as cell-based, Plasmodium falciparum. To be noted: NF54 or 3D7 infected human erythrocytes, 72 hours, read-out: EC50 (nM), inhibitory efficacy in delaying P. falciparum proliferation in infected human blood cells. In short, it runs like this: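 Infected erythrocytes (NF54 or 3D7; final 2.5% hematocrit, 0.3% parasitemia) were incubated with compounds for 72 h at 37 °C in low oxygen (3% O2, 4% CO2, 93% N2).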

Where [1] appears, read: Plasmodium falciparum, Erythrocyte, 72 h.

Like-named read-outs stand apart in the source and are kept apart here. A value given as a limit tells only on which side of the number the result lay.

As to `COc1ncc(C)cc1N(C)C(=O)c1cn2c(-c3ccc(C(F)(F)F)cc3)cnc2cn1` [Compound 250, N-(2-methoxy-5-methylpyridin-3-yl)-N-methyl-3-[4-(trifluoromethyl)phenyl]imidazo[1,2-a]pyrazine-6-carboxamide], under setting [1], the EC50 stood at 302 nM. Same read-out and setting: the same measure for `Cc1cncc(N(C)C(=O)c2cn3c(-c4ccc(C(F)(F)F)cc4)cnc3cn2)c1` [Compound 251, N-methyl-N-(5-methylpyridin-3-yl)-3-[4-(trifluoromethyl)phenyl]imidazo[1,2-a]pyrazine-6-carboxamide]: 5520 nM. On to `CN(C(=O)c1cn2c(-c3cc4cc(C#N)ccc4[nH]3)cnc2cn1)c1ccc(C#N)cc1` [Compound 252], for which, where the note is “Plasmodium falciparum, 3D7|NF54, Erythrocyte, in Homo sapiens, 72 h”, the EC50 is over 8280 nM. Regarding `CCOC(=O)c1cnc2cnc(C(=O)N(C)c3ccc(Cl)nc3)cn12` [Compound 253, ethyl 6-[(6-chloropyridin-3-yl)(methyl)carbamoyl]imidazo[1,2-a]pyrazine-3-carboxylate], the EC50 under setting [1] came to 2460 nM. On the same count and under the same terms, the same measure for `CCOC(=O)Nc1ccc(-c2cnc3cnc(C(=O)N(C)c4ccc(C#N)cc4)cn23)cc1` [Compound 254, ethyl N-(4-{6-[(4-cyanophenyl)(methyl)carbamoyl]imidazo[1,2-a]pyrazin-3-yl}phenyl)carbamate]: 67 nM; for `CN(C(=O)c1cn2c(-c3ccc(NC(=O)C4CCC[C@H]4N)cc3)cnc2cn1)c1ccc(C#N)cc1` (stereo partly drawn) [Compound 255, 3-(4-{[(1S,2R)-2-aminocyclopentane]amido}phenyl)-N-(4-cyanophenyl)-N-methylimidazo[1,2-a]pyrazine-6-carboxamide]: 155 nM. Still for that read-out and setting: the figure for `CC(C)[C@@H](N)CC(=O)Nc1ccc(-c2cnc3cnc(C(=O)N(C)c4ccc(C#N)cc4)cn23)cc1` [Compound 256, 3-{4-[(3S)-3-amino-4-methylpentanamido]phenyl}-N-(4-cyanophenyl)-N-methylimidazo[1,2-a]pyrazine-6-carboxamide] is 240 nM; for `CN(C(=O)c1cn2c(-c3ccc(-c4ccn[nH]4)cc3)cnc2cn1)c1ccc(F)cc1` [Compound 257, N-(4-fluorophenyl)-N-methyl-3-[4-(1H-pyrazol-5-yl)phenyl]imidazo[1,2-a]pyrazine-6-carboxamide] it is 92 nM; for `CN(C(=O)c1cn2c(-c3ccc(-c4ccn[nH]4)cc3)cnc2cn1)c1ccc(F)c(F)c1` [Compound 258, N-(3,4-difluorophenyl)-N-methyl-3-[4-(1H-pyrazol-5-yl)phenyl]imidazo[1,2-a]pyrazine-6-carboxamide] it is 76 nM.

`CN(C(=O)c1ccc(Cl)cc1)c1cn2c(-c3ccc(C(F)(F)F)cc3)cnc2cn1` [Compound 259, 4-chloro-N-methyl-N-{3-[4-(trifluoromethyl)phenyl]imidazo[1,2-a]pyrazin-6-yl}benzamide]: under setting [1], the EC50 came out at 414 nM.

On to `COC(=O)Nc1ccc(-c2cnc3cnc(C(=O)N(C)c4ccc(C#N)cc4)cn23)cn1` [Compound 260, methyl N-(5-{6-[(4-cyanophenyl)(methyl)carbamoyl]imidazo[1,2-a]pyrazin-3-yl}pyridin-2-yl)carbamate], for which the EC50 under setting [1] is 399 nM. The same measure, in the same setting: the same measure for `CC(C)OC(=O)Nc1ccc(-c2cnc3cnc(C(=O)N(C)c4ccc(C#N)cc4)cn23)cc1` [Compound 261, Propan-2-yl N-(4-{6-[(4-cyanophenyl)(methyl)carbamoyl]imidazo[1,2-a]pyrazin-3-yl}phenyl)carbamate]: 408 nM; for `CNc1nnc(-c2ccc(-c3cnc4cnc(C(=O)N(C)c5ccc(Cl)nc5)cn34)cc2)s1` [Compound 262, N-(6-chloropyridin-3-yl)-N-methyl-3-{4-[5-(methylamino)-1,3,4-thiadiazol-2-yl]phenyl}imidazo[1,2-a]pyrazine-6-carboxamide]: 97 nM; for `Cc1ccc(N(C)Cc2cn3c(-c4ccc(C(F)(F)F)cc4)cnc3cn2)cc1` [Compound 263, N,4-dimethyl-N-({3-[4-(trifluoromethyl)phenyl]imidazo[1,2-a]pyrazin-6-yl}methyl)aniline]: 436 nM. On the same count and under the same terms, the figure for `CN(C(=O)c1ccc(Cl)cn1)c1cn2c(-c3ccc(C(F)(F)F)cc3)cnc2cn1` [Compound 264, 5-chloro-N-methyl-N-{3-[4-(trifluoromethyl)phenyl]imidazo[1,2-a]pyrazin-6-yl}pyridine-2-carboxamide] is 277 nM; for `CN(C(=O)c1cn2c(-c3ccc(C(F)F)cc3)cnc2cn1)c1ccc(Cl)nc1` [Compound 265, N-(6-chloropyridin-3-yl)-3-[4-(difluoromethyl)phenyl]-N-methylimidazo[1,2-a]pyrazine-6-carboxamide] it is 318 nM. The same measure, in the same setting: the figure for `CC(C)[C@H](N)C(=O)Nc1ccc(-c2cnc3cnc(C(=O)N(C)c4ccc(C#N)cc4)cn23)cc1` [Compound 266, 3-{4-[(2S)-2-amino-3-methylbutanamido]phenyl}-N-(4-cyanophenyl)-N-methylimidazo[1,2-a]pyrazine-6-carboxamide] is 234 nM; for `CN(C(=O)c1ccc(Cl)nc1)c1cn2c(-c3ccc(C(F)(F)F)cc3)cnc2cn1` [Compound 267, 6-chloro-N-methyl-N-{3-[4-(trifluoromethyl)phenyl]imidazo[1,2-a]pyrazin-6-yl}pyridine-3-carboxamide] it is 424 nM; for `CN(C(=O)c1ccc(F)cc1)c1cn2c(-c3ccc(C(F)(F)F)cc3)cnc2cn1` [Compound 268, 4-fluoro-N-methyl-N-{3-[4-(trifluoromethyl)phenyl]imidazo[1,2-a]pyrazin-6-yl}benzamide] it is 112 nM.

For `C[C@@H](N)CC(=O)Nc1ccc(-c2cnc3cnc(C(=O)N(C)c4ccc(C#N)cc4)cn23)cc1` [Compound 269, 3-{4-[(3R)-3-aminobutanamido]phenyl}-N-(4-cyanophenyl)-N-methylimidazo[1,2-a]pyrazine-6-carboxamide], the EC50 under setting [1] came out at 651 nM. The same measure, in the same setting: the same measure for `CN(C(=O)c1cn2c(-c3ccc(NC(=O)C(N)C4CCC4)cc3)cnc2cn1)c1ccc(C#N)cc1` (stereo not drawn) [Compound 270, 3-[4-(2-amino-2-cyclobutylacetamido)phenyl]-N-(4-cyanophenyl)-N-methylimidazo[1,2-a]pyrazine-6-carboxamide]: 605 nM. As for `CN(C(=O)c1cn2c(-c3ccc(N)nc3)cnc2cn1)c1ccc(C#N)cc1` [Compound 272, 3-(6-aminopyridin-3-yl)-N-(4-cyanophenyl)-N-methylimidazo[1,2-a]pyrazine-6-carboxamide], the EC50 under setting [1] came out at 295 nM.

`CN(C(=O)c1cn2c(-c3ccc(OCC#N)cc3)cnc2cn1)c1ccc(C#N)cc1` [Compound 273, 3-[4-(cyanomethoxy)phenyl]-N-(4-cyanophenyl)-N-methylimidazo[1,2-a]pyrazine-6-carboxamide]: the EC50 under setting [1] was 186 nM. Same read-out and setting: the same measure for `N#Cc1ccc2c(c1)CCCN2C(=O)c1cn2c(-c3ccc(C(F)(F)F)cc3)cnc2cn1` [Compound 274, 1-({3-[4-(trifluoromethyl)phenyl]imidazo[1,2-a]pyrazin-6-yl}carbonyl)-1,2,3,4-tetrahydroquinoline-6-carbonitrile]: 224 nM; for `CN(C(=O)c1cn2c(-c3ccc(C(F)(F)F)cc3F)cnc2cn1)c1ccc(Cl)nc1` [Compound 275, N-(6-chloropyridin-3-yl)-3-[2-fluoro-4-(trifluoromethyl)phenyl]-N-methylimidazo[1,2-a]pyrazine-6-carboxamide]: 468 nM; for `CN(C(=O)c1ccc(C(F)(F)F)cc1)c1cn2c(-c3ccc(C(F)(F)F)cc3)cnc2cn1` [Compound 276, N-methyl-4-(trifluoromethyl)-N-{3-[4-(trifluoromethyl)phenyl]imidazo[1,2-a]pyrazin-6-yl}benzamide]: 310 nM. On the same count and under the same terms, the same measure for `Cc1ccc(N(C)C(=O)c2cn3c(-c4ccc(C(F)(F)F)cc4)cnc3cn2)cn1` [Compound 277, N-methyl-N-(6-methylpyridin-3-yl)-3-[4-(trifluoromethyl)phenyl]imidazo[1,2-a]pyrazine-6-carboxamide]: 1130 nM; for `CN(C(=O)c1cn2c(-c3ccc(NCC(C)(C)N)cc3)cnc2cn1)c1ccc(C#N)cc1` [Compound 278, 3-{4-[(2-amino-2-methylpropyl)amino]phenyl}-N-(4-cyanophenyl)-N-methylimidazo[1,2-a]pyrazine-6-carboxamide]: 784 nM; for `CC(=O)Nc1ccc(-c2cnc3cnc(C(=O)N(C)c4ccc(Cl)nc4)cn23)cc1` [Compound 279, N-(6-chloropyridin-3-yl)-3-(4-acetamidophenyl)-N-methylimidazo[1,2-a]pyrazine-6-carboxamide]: 454 nM. Still for that read-out and setting: the same measure for `COc1ccc(-c2cnc3cnc(C(=O)N(C)c4ccc(Cl)nc4)cn23)c(F)c1` [Compound 280, N-(6-chloropyridin-3-yl)-3-(2-fluoro-4-methoxyphenyl)-N-methylimidazo[1,2-a]pyrazine-6-carboxamide]: 707 nM.

Consider `C[C@@H](N)C(=O)Nc1ccc(-c2cnc3cnc(C(=O)N(C)c4ccc(C#N)cc4)cn23)cc1` [Compound 282, 3-{4-[(2R)-2-aminopropanamido]phenyl}-N-(4-cyanophenyl)-N-methylimidazo[1,2-a]pyrazine-6-carboxamide], for which the EC50 turned out to be 252 nM. As for `CN(C(=O)c1ccc(C#N)cc1)c1cn2c(-c3ccc(C(F)(F)F)cc3)cnc2cn1` [Compound 283, 4-cyano-N-methyl-N-{3-[4-(trifluoromethyl)phenyl]imidazo[1,2-a]pyrazin-6-yl}benzamide], the EC50 under setting [1] was found to be 178 nM. Same read-out and setting: the same measure for `CN(C)CCOc1ccc(-c2cnc3cnc(C(=O)N(C)c4ccc(C#N)cc4)cn23)cc1` [Compound 284, N-(4-cyanophenyl)-3-{4-[2-(dimethylamino)ethoxy]phenyl}-N-methylimidazo[1,2-a]pyrazine-6-carboxamide]: 947 nM.
